Data from ChEMBL document CHEMBL4304790, “Successful Strategies for Mitigation of a Preclinical Signal for Phototoxicity in a DGAT1 Inhibitor” (ACS Med Chem Lett, 2019).
≈ marks a conversion by molar mass, not a printed value. Structures can show the parent of a compound that is named as a salt. Each block holds one compound with its values, some of them ahead of it. Calls of active or inactive are those of the source. No cut-off for these calls is given here.

Key:
[1] = molecular target: T1, Diacylglycerol O-acyltransferase 1 (Mus musculus, UniProt Q9Z2A7); experiment: (§1) Inhibition of DGAT1 in mouse C2C12 cells assessed as reduction in intracellular triglyceride production incubated for 2 hrs in presence of BSA-complexed oleate by LC/MS/MS analysis; format: cell-based
T1 sequence (Q9Z2A7 whole entry): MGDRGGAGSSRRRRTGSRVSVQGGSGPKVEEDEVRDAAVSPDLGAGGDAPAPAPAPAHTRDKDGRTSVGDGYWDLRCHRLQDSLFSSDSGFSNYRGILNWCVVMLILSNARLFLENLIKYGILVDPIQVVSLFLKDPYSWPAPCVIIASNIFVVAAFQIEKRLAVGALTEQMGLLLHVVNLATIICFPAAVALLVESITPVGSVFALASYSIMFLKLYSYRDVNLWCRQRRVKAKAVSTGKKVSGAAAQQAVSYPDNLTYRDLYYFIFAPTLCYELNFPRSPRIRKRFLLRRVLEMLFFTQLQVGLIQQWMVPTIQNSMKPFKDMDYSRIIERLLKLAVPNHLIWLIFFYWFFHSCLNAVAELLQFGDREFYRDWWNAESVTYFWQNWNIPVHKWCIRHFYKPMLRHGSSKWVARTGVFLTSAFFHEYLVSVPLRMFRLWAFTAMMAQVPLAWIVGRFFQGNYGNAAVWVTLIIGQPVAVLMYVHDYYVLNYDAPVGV

[2] = Lipophilicity, log D of the compound at pH 7.4; format: physicochemical; conditions: buffer
[3] = Photo irritation factor, ratio of IC50 for cytotoxicity against BALB/c mouse 3T3 cells pretreated for 1 hr prior to 50 mins incubation in dark conditions followed by further incubation in DMEM medium for 20 to 22 hrs to IC50 for cytotoxicity against BALB/c mouse 3T3 cells pretreated for 1 hr prior to irradiation with UVA for 50 mins followed by further in DMEM medium incubation for 20 to 22 hrs …; format: cell-based; conditions: BALB/c 3T3 cells
[4] = Permeability across apical to basolateral side in human Caco2 cells; format: ADME, cell-based; conditions: Caco-2, read-out: permeability
Rattus norvegicus [5] = species on record: Rattus norvegicus; conditions: Sprague-Dawley, 5 mg/kg
[6] = Half life in Sprague-Dawley rat at 0.5 mg/kg, iv measured upto 24 hrs; format: ADME, organism-based; conditions: in vivo
[7] = Permeability across basolateral to apical side in human Caco2 cells; format: ADME, cell-based; conditions: Caco-2, read-out: permeability
[8] = Solubility of compound at pH 6.8; format: physicochemical; conditions: buffer
[9] = Drug uptake in plasma of Sprague-Dawley rat lipid bolus model at 5 mg/kg, po administered via gavage 4 hrs prior to lipid challenge and measured upto 8 hrs post compound dose by LC-MS/MS analysis; format: ADME, organism-based; conditions: in vivo
[10] = Clearance in Sprague-Dawley rat at 0.5 mg/kg, iv measured upto 24 hrs; format: ADME, organism-based; conditions: in vivo
[11] = Protein binding in rat plasma; format: ADME, cell-free; conditions: read-out: PPB (converted)
[12] = Oral bioavailability in Sprague-Dawley rat at 1.5 mg/kg measured upto 24 hrs; format: ADME, organism-based; conditions: in vivo
[13] = Tmax in Sprague-Dawley rat at 1.5 mg/kg, po measured upto 24 hrs; format: ADME, organism-based; conditions: in vivo
[14] = AUC (0 to 24 hrs) in Sprague-Dawley rat at 0.5 mg/kg, iv measured upto 24 hrs; format: ADME, organism-based; set-up: time < 24 hr, dose 0.5 mg/kg, route intravenous; conditions: in vivo
[15] = Toxicity in preclinical models assessed as GI tolerability
[16] = Cmax in Sprague-Dawley rat at 1.5 mg/kg, po measured upto 24 hrs; format: ADME, organism-based; set-up: dose 1.5 mg/kg, route oral; conditions: in vivo
[17] = Volume of distribution in Sprague-Dawley rat at 0.5 mg/kg, iv measured upto 24 hrs; format: ADME, organism-based; conditions: in vivo
[18] = AUC (0 to 24 hrs) in Sprague-Dawley rat at 1.5 mg/kg, po measured upto 24 hrs; format: ADME, organism-based; set-up: time < 24 hr, dose 1.5 mg/kg, route oral; conditions: in vivo
[19] = molecular target: T2, Diacylglycerol O-acyltransferase 1 (Homo sapiens) (UniProt O75907); experiment: (§2) Inhibition of recombinant human his-tagged DGAT1 expressed in Sf9 insect cells using oleoyl-CoA and diolein as substrates incubated for 30 mins by LC/MS/MS analysis
T2 sequence (whole entry): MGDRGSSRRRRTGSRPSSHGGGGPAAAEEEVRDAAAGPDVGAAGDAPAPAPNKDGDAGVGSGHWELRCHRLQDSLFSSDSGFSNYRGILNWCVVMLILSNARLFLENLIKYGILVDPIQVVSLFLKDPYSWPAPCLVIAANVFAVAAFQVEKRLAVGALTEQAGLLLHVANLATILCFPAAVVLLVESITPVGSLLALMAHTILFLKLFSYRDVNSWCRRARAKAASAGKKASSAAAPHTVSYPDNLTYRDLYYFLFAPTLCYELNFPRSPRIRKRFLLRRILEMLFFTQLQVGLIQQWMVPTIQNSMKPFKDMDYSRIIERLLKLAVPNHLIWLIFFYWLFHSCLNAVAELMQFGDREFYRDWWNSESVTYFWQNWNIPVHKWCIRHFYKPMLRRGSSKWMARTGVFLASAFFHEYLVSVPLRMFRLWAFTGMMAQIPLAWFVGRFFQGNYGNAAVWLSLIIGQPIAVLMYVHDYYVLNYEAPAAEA

[20] = molecular target: T3, Diacylglycerol O-acyltransferase 1 (Mus musculus) (UniProt Q9Z2A7); experiment: as §1; format: cell-based
T3 sequence (whole entry): T1 sequence (Q9Z2A7 whole entry)

[21] = Dissociation constant, pKa of compound; format: physicochemical
[22] = Volume of distribution in Sprague-Dawley rat at 1 mg/kg, iv measured upto 24 hrs; format: ADME, organism-based; conditions: in vivo
[23] = Half life in Sprague-Dawley rat at 1 mg/kg, iv measured upto 24 hrs; format: ADME, organism-based; conditions: in vivo
[24] = AUC (0 to 24 hrs) in Sprague-Dawley rat at 5 mg/kg, po measured upto 24 hrs; format: ADME, organism-based; set-up: dose 5 mg/kg, time < 24 hr, route oral; conditions: in vivo
[25] = molecular target: T4, Diacylglycerol O-acyltransferase 1 (Homo sapiens, UniProt O75907); experiment: as §2
T4 sequence (O75907 whole entry): T2 sequence (whole entry)

[26] = Cmax in Sprague-Dawley rat at 5 mg/kg, po measured upto 24 hrs; format: ADME, organism-based; set-up: dose 5 mg/kg, route oral; conditions: in vivo
Rattus norvegicus [27] = experiment: Antihyperlipidemic activity in Sprague-Dawley rat lipid bolus model assessed as reduction in plasma triglyceride excursion at 5 mg/kg, po administered via gavage 4 hrs prior to lipid challenge and measured upto 8 hrs post compound dose by GPO-Trinder method relative to control; format: functional
[28] = Half life in po dosed human plasma administered as single dose; format: ADME, organism-based
[29] = Tmax in Sprague-Dawley rat at 5 mg/kg, po measured upto 24 hrs; format: ADME, organism-based; conditions: in vivo
[30] = Oral bioavailability in Sprague-Dawley rat at 5 mg/kg measured upto 24 hrs; format: ADME, organism-based; conditions: in vivo
[31] = AUC (0 to 24 hrs) in Sprague-Dawley rat at 1 mg/kg, iv measured upto 24 hrs; format: ADME, organism-based; set-up: dose 1 mg/kg, time < 24 hr, route intravenous; conditions: in vivo
[32] = Efflux ratio of permeability across basolateral to apical side over apical to basolateral side in human Caco2 cells; format: ADME, cell-based; conditions: Caco-2
[33] = Clearance in Sprague-Dawley rat at 1 mg/kg, iv measured upto 24 hrs; format: ADME, organism-based; conditions: in vivo

EC50 [1]: 12 nM | logD [2]: 2.8
SMILES: O=C(O)C[C@H]1CC[C@H](c2ccc(-c3ccc(Nc4nnc(C5CCC5)o4)cn3)cc2)CC1

SMILES: COc1ccc2nc(Nc3ccc(-c4ccc([C@H]5CC[C@H](CC(=O)O)CC5)cc4)nc3)oc2c1
selectivity ratio [3]: 17

EC50 [1]: 8 nM
SMILES: O=C(O)C[C@H]1CC[C@H](c2ccc(-c3ccc(Nc4nnc(C5CCC5)s4)cn3)cc2)CC1

EC50 [1]: 8 nM
SMILES: CCc1nc(C)c(C(=O)Nc2ccc(-c3ccc([C@H]4CC[C@H](CC(=O)O)CC4)cc3)nc2)o1
selectivity ratio [3]: 1

Papp A→B [4]: 5.9 ×10⁻⁶ cm/s | half-life [6]: 192 min | Papp B→A [7]: 11.8 ×10⁻⁶ cm/s | solubility [8]: < 5 µM | Drug uptake [9]: Active | clearance [10]: 3.5 mL/min/kg | fraction unbound [11]: < 0.01 | bioavailability [12]: > 100% | Tmax [13]: 1 h | AUC(0-t) at 24 h [14]: 5.16 µM·h | Cmax [16]: 6.1 µM | Vd [17]: 0.7 L/kg | logD [2]: 2.4 | AUC(0-t) at 24 h [18]: 25.8 µM·h
SMILES: O=C(O)CC12CCC(c3ccc(-c4ccc(Nc5nnc(C6CCC6)o5)cc4)cc3)(CC1)CO2
inhibition (Rattus norvegicus [5]): Active | Activity [15]: Non-Toxic

SMILES: CN(C)CCCN1c2ccccc2Sc2ccc(Cl)cc21 [CHLORPROMAZINE HYDROCHLORIDE]
selectivity ratio [3]: > 6

EC50 [1]: 206 nM
SMILES: Cc1nnc(Nc2ccc(-c3ccc([C@H]4CC[C@H](CC(=O)O)CC4)cc3)nc2)o1

Papp A→B [4]: 18.3 ×10⁻⁶ cm/s | half-life [6]: 1200 min | Papp B→A [7]: 7.7 ×10⁻⁶ cm/s | solubility [8]: 13 µM (≈ 6.17 µg/mL) | Drug uptake [9]: Active | clearance [10]: 0.2 mL/min/kg | fraction unbound [11]: < 0.01 | bioavailability [12]: > 100% | Tmax [13]: 3 h | AUC(0-t) at 24 h [14]: 51.4 µM·h | Cmax [16]: 28 µM | Vd [17]: 0.3 L/kg | AUC(0-t) at 24 h [18]: 180 µM·h
SMILES: CCc1nc(C)c(C(=O)Nc2ccc(-c3ccc(C45CCC(CC(=O)O)(CC4)OC5)cc3)cc2)o1
inhibition (Rattus norvegicus [5]): Active | Activity [15]: Non-Toxic

inhibition [19]: Active | inhibition [20]: Active
SMILES: CC(C)(C)c1nnc(Nc2ccc(-c3ccc([C@H]4CC[C@H](CC(=O)O)CC4)cc3)nc2)o1

pKa [21]: 3.9 | logD [2]: 1.5
SMILES: O=C(O)CC12CCC(c3ccc(-c4ccc(Nc5nnc(C6CCC6)o5)cn4)cc3)(CC1)CO2

Vd [22]: 0.1 L/kg | half-life [23]: 306 min | AUC(0-t) at 24 h [24]: 190 µM·h | IC50 [25]: 55 nM | Papp A→B [4]: 8.1 ×10⁻⁶ cm/s | Cmax [26]: 42 µM | Papp B→A [7]: 2.3 ×10⁻⁶ cm/s | solubility [8]: < 5 µM | pKa [21]: 4.1 | fraction unbound [11]: 0.003 | half-life [28]: 5.21 days | Tmax [29]: 42 min | bioavailability [30]: 83% | AUC(0-t) at 24 h [31]: 46 µM·h | efflux ratio [32]: 0.28 | EC50 [1]: 71 nM | clearance [33]: 1 mL/min/kg | logD [2]: 3.6
SMILES: O=C(O)C[C@H]1CC[C@H](c2ccc(-c3ccc(Nc4ccc(C(F)(F)F)nc4)cn3)cc2)CC1
selectivity ratio [3]: 56 | inhibition in vivo at 5 mg/kg (Rattus norvegicus [27]): 50 to 70% | Activity [15]: Non-Toxic

pKa [21]: 3.8 | EC50 [1]: 2300 nM | logD [2]: 0.7
SMILES: CC(C)c1nnc(Nc2ccc(-c3ccc(N4CCC(CC(=O)O)CC4)cc3)nc2)o1

EC50 [1]: 27 nM
SMILES: CCc1nnc(Nc2ccc(-c3ccc([C@H]4CC[C@H](CC(=O)O)CC4)cc3)nc2)o1
